{"source": "patent US20100216706A1", "about": "“Ghrelin Protects Substantia Nigra Dopamine Neurons” (priority 2007, published 2010)", "key": {"[1]": {"conditions": "Matsumoto et al., 2001; cited from earlier work"}, "TH neurons in the SNpc": {"system": "TH neurons in the SNpc", "assay": "MPTP-induced TH cell loss in the SNpc (stereology, optical fractionator)", "assay_type": "in vivo, mice", "source_text": "(§1) Control animals were given saline. Animals were sacrificed and perfused 7 days later and processed for immunohistochemistry or HPLC for dopamine (DA) and metabolites. n=8-10 for ghrelin wt and ko mice; n=6 for GHSR wt/wt, homo/wt and homo/TG.\nTH cell quantification: Free floating sections were stained with TH (1:5000, Chemicon International) and visualized with DAB using standard procedures.\nUnbiased stereology methods were used to quantify TH immunoreactive cells in the SNpc. Cells were visualized by a Zeiss microscope and relayed via a MicroFibre digital camera (www(dot)optronics(dot)com) to a computer where they were counted using the optical fractionator with the sophisticated Stereolnvestigator software (MicroBrightField, Williston, Vt., USA). Every fourth section was collected through the SNpc, and TH cells were counted in grids randomly positioned by the software in the outlined counting area through all optical planes, thus creating a 3 dimensional counting area.\n(§2) The observation that ghrelin promotes SNpc DA neuronal function, mitochondrial respiration and number raises the possibility that ghrelin may protect nigrostriatal dopaminergic system during increased cellular stress. […] In brief, mice were treated with daily IP injections of exogenous ghrelin (10 nmols) or saline for 14 days. Mice were injected immediately before the dark phase, and food was removed overnight since calorie intake and postprandial increases in glucose and insulin can suppress the action of ghrelin (Cummings et al., 2006, Physiol Behav 89: 71-84). Both ghrelin and saline treated mice were given 3 grams of standard chow the following morning at 9 am. […] After the subsequent 7 days of treatment (saline or ghrelin), TH immunoreactive neurons were counted blind by two independent researchers using the non-biased optical fractionator on the stereology program, Stereoinvestigator."}, "striatal dopamine": {"system": "striatal dopamine", "assay": "Striatal dopamine after MPTP (HPLC)", "assay_type": "in vivo, mice", "conditions": "saline 14 days, MPTP on day 7", "description": "as §1\nThe samples were subsequently thawed in 0.4 ml of chilled 0.1 M perchloric acid and sonicated. Aliquots were taken for protein quantification using a spectrophotometric assay. Other aliquots were centrifuged, and DA levels were measured in supernatants by high pressure liquid chromatography (HPLC) with electrochemical detection. Concentrations of DA and metabolites were expressed as ng/mg protein (mean±SEM).\nas §2"}, "[2]": {"assay": "Body weight gain after MPTP in ghrelin wt and ko mice", "assay_type": "in vivo", "conditions": "from day 1 to day 7 after MPTP", "source_text": "as §1\nWt and ko mice treated with saline gained a similar amount of weight over the 7 days (wt saline 1.39±0.19 g vs ko saline 1.59±0.49 g)."}, "[3]": {"molecular_target": "growth hormone secretagogue receptor 1a (GHSR) on SNpc dopamine neurons, species of the tissue not stated for the experiment (mouse and/or rat)", "assay": "cell-based or functional assay"}}, "note": "Several values for one entry are separate records, joined by “and”; a condition that tells them apart may be missing. Equal entries are not always repeated. *: point of attachment. Octyl = CCCCCCCC*"}
{"compound": "5-aminopentanoyl-Ser(Octyl)-Phe-Leu-aminoethylamide ({5‑aminopentanoyl}-Ser(Octyl)-Phe-Leu-aminoethylamide; also: acylation site at position 3; listed as Homo sapiens)", "values": [{"measurement": "Ghrelin activity", "setting": "[1]", "result": "potent ghrelin activity"}]}
{"compound": "CN1CC=C(c2ccccc2)CC1", "note": "[MPTP, 1-methyl-4-phenyl-1,2,5,6 tetrahydropyridine]", "values": [{"measurement": "TH-immunoreactive cells in SNpc, ghrelin−/− mice", "setting": "TH neurons in the SNpc; MPTP 30 mg/kg IP, 7 days, ko saline 8580±78", "result": "3691±550"}, {"measurement": "TH-immunoreactive cells in SNpc, ghrelin+/+ mice", "setting": "TH neurons in the SNpc; MPTP 30 mg/kg IP, 7 days, wt saline 9105±342", "result": "6688±610"}, {"measurement": "TH neurons in SNpc, GHSR homo/TG (TH-only) mice", "setting": "TH neurons in the SNpc; MPTP, homo/TG saline 12293±1123", "result": "9401±743"}, {"measurement": "TH neurons in SNpc, GHSR homo/wt (null) mice", "setting": "TH neurons in the SNpc; MPTP, homo/wt saline 11590±1133", "result": "6582±636"}, {"measurement": "TH neurons in SNpc, GHSR wt/wt mice", "setting": "TH neurons in the SNpc; MPTP, wt/wt saline 11902±713", "result": "9171±765"}, {"measurement": "Dopamine cell loss compared to controls, saline treatment after MPTP lesion", "setting": "TH neurons in the SNpc; saline 14 days, MPTP on day 7", "result": 49, "unit": "%"}, {"measurement": "Total TH neurons in SNpc, sal/MPTP", "setting": "TH neurons in the SNpc; wt mice, saline 14 days, MPTP 30 mg/kg IP on day 7, sal/sal 11283±342", "result": "5750±432"}, {"measurement": "Loss of striatal dopamine vs controls, sal/MPTP", "setting": "striatal dopamine", "result": 65, "unit": "%"}, {"measurement": "Striatal dopamine concentration, sal/MPTP", "setting": "striatal dopamine; sal/sal 147.4±10.2", "result": "51.4±2.7", "unit": "ng/mg protein"}, {"measurement": "Body weight gain, ghrelin ko mice", "setting": "[2]; ko saline 1.59±0.49", "result": "1.37 ± 0.15", "unit": "g"}, {"measurement": "Body weight gain, ghrelin wt mice", "setting": "[2]; wt saline 1.39±0.19", "result": "2.16 ± 0.10 g and 2.17 ± 0.10 g"}]}
{"compound": "ghrelin (unlabeled, Phoenix Pharmaceuticals) (peptide)", "values": [{"measurement": "action potential frequency of SNpc DA neurons (whole-cell current clamp, brain slices)", "setting": "[3]", "result": "132 % of control"}]}
